Laboratory results as given in the Kinase Knowledgebase extract (Sharma et al. 2016).

Molecular target: PIK3CA (human) (UniProt P42336)
Experiment: Cell-Based Assay
Conditions: bt474

Chain of PIK3CA (human) (P42336 whole entry, looked up): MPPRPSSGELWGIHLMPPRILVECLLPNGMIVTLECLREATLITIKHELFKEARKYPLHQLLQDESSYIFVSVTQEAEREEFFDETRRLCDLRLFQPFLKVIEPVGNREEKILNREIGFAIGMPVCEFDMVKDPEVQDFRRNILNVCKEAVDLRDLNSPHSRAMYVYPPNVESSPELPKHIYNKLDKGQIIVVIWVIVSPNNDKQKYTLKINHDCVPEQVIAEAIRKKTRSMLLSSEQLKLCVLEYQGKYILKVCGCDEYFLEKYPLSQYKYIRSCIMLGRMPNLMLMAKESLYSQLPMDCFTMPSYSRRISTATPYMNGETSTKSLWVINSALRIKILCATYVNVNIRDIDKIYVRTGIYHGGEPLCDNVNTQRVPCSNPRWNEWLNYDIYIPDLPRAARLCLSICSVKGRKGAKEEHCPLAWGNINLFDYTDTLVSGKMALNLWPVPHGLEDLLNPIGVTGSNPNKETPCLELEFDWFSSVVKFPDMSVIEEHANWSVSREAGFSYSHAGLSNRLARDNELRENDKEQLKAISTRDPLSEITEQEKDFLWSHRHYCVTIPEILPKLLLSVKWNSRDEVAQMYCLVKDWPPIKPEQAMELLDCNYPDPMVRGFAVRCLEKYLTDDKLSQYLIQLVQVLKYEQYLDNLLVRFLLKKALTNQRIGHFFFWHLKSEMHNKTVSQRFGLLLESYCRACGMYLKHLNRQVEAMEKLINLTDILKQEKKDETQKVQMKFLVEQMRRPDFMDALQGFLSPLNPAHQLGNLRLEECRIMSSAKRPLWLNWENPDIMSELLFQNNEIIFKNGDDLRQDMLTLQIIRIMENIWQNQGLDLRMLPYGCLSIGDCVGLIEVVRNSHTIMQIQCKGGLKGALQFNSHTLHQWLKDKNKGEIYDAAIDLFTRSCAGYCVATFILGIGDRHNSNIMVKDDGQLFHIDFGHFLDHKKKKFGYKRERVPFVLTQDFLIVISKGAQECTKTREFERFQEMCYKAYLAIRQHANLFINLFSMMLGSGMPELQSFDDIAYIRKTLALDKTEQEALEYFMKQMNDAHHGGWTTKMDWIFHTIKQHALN

IC50 [µM] | Compound
> 30 | Cn1c(=O)n([C@H]2CCCOC2)c2c3cc(-c4ccc(OCCCN5CCCC5)nc4)c(F)cc3ncc21
0.499 | Cn1c(=O)n([C@H]2CCCOC2)c2c3cc(-c4ccc(OCCCN5CCC5)nc4)ccc3ncc21
> 28 | CO[C@H]1C[C@@H](n2c(=O)n(C)c3cnc4cc(F)c(-c5ccc(OCCCN(C)C)nc5F)cc4c32)C1
> 23.5 | Cn1c(=O)n([C@H]2CCCOC2)c2c3cc(-c4ccc(OCCCN5CCCCC5)nc4)c(F)cc3ncc21
1.08 | CN(C)CCCOc1ccc(-c2ccc3ncc4c(c3c2)n([C@H]2C[C@@H](O)C2)c(=O)n4C)cn1
> 20.2 | CN(C)CCCOc1ccc(-c2cc3c(cc2F)ncc2c3n([C@H]3CCCOC3)c(=O)n2C)cn1
> 26.3 | Cn1c(=O)n(C2COC2)c2c3cc(-c4ccc(OCCCN5CCCCC5)nc4)ccc3ncc21
10 | CN(C)CCCOc1ccc(-c2cc3c(cc2F)ncc2c3n([C@@H]3CCCOC3)c(=O)n2C)cn1
> 10.9 | Cn1c(=O)n([C@H]2CCCOC2)c2c3cc(-c4ccc(OCCCN5CCCCC5)nc4)ccc3ncc21
> 30 | CO[C@H]1C[C@@H](n2c(=O)n(C)c3cnc4cc(F)c(-c5ccc(OCCCN(C)C)nc5)cc4c32)C1
> 29.8 | CO[C@H]1C[C@@H](n2c(=O)n(C)c3cnc4cc(F)c(-c5ccc(OCCCN6CCCC6)nc5)cc4c32)C1
> 25 | O=c1[nH]c2cnc3ccc(-c4ccc(OCCCN5CCCCC5)nc4)cc3c2n1C1CCOCC1
> 14.3 | Cn1c(=O)n(C2CCC2)c2c3cc(-c4ccc(OCCCN5CCCCC5)nc4)ccc3ncc21
> 29.1 | CN(C)CCCOc1ccc(-c2cc3c(cc2F)ncc2c3n(C3COC3)c(=O)n2C)cn1
> 9.4 | CN(C)CCCOc1ccc(-c2cc3c(cc2F)ncc2c3n([C@H]3CCCOC3)c(=O)n2C)c(F)n1
> 9.56 | Cn1c(=O)n(C2CCC2)c2c3cc(-c4ccc(OCCCN5CCCC5)nc4)ccc3ncc21
> 16.2 | Cn1c(=O)n([C@H]2CCCOC2)c2c3cc(-c4ccc(OCCCN5CCCC5)nc4F)ccc3ncc21
> 16.7 | Cn1c(=O)n(C2CCOCC2)c2c3cc(-c4ccc(OCCCN5CCCCC5)nc4)c(F)cc3ncc21
6.84 | CN(C)CCCOc1ccc(-c2ccc3ncc4c(c3c2)n(C2COC2)c(=O)n4C)cn1
